# Laboratory results as given in ChEMBL document CHEMBL6121069, “A Medicinal Chemistry Perspective on Protein Tyrosine Phosphatase Nonreceptor Type 2 in Tumor Immunology” (J Med Chem, 2025).
# How the values were obtained:
# [1] = molecular target: T1, Tyrosine-protein phosphatase non-receptor type 2 (Homo sapiens, UniProt P17706)
# T1 sequence (P17706 whole entry): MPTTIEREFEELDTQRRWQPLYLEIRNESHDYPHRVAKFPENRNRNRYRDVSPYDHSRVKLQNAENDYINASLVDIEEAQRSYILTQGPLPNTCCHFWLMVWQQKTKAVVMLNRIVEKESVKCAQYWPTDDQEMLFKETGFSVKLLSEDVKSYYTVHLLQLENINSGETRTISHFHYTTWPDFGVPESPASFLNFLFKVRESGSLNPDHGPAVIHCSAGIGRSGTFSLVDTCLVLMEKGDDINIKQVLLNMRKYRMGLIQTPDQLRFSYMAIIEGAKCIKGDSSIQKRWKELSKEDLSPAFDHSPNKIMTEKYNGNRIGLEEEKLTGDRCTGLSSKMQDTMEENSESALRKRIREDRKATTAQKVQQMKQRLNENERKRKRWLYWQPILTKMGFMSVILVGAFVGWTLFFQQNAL
# Description: Binding affinity to PTPN2 (unknown origin) assessed as inhibition constant
# [2] = molecular target: T2, Tyrosine-protein phosphatase non-receptor type 1 (Homo sapiens, UniProt P18031)
# T2 sequence (P18031 whole entry): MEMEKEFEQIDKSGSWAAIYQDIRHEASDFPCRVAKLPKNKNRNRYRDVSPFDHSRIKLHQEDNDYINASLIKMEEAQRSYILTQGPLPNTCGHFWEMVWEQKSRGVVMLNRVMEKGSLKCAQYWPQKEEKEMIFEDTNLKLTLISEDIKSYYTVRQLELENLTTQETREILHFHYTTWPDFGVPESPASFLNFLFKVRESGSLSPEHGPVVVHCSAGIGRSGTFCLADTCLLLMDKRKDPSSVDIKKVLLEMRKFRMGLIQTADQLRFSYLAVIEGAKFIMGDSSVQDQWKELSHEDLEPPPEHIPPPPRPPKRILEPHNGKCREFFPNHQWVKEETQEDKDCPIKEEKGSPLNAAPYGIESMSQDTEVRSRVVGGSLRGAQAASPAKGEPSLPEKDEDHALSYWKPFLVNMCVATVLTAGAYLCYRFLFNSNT
# Description: Binding affinity to PTP1B (unknown origin) assessed as inhibition constant
# [3] = molecular target: T1, Tyrosine-protein phosphatase non-receptor type 2; remark: listed apart in the source
# Description: (§1) Inhibition of wild type FLAG-tagged PTPN2 (unknown origin) extracted from Escherichia coli BL21 (DE3) by micro-plate reader assay
# [4] = molecular target: T1, Tyrosine-protein phosphatase non-receptor type 2; remark: listed apart in the source
# Description: as §1
# [5] = molecular target: T2, Tyrosine-protein phosphatase non-receptor type 1; remark: listed apart in the source
# Description: Inhibition of PTP1B (unknown origin)
# [6] = molecular target: T3, Protein cereblon/Tyrosine-protein phosphatase non-receptor type 2 (Homo sapiens, UniProt P17706+Q96SW2); conditions: hek293t
# Description: PROTAC activity at PTPN2/CRBN in HEK293T cells assessed as protein degradation measured for 48 hrs by Western blot analysis
# [7] = molecular target: Protein cereblon/Tyrosine-protein phosphatase non-receptor type 1 (Homo sapiens, UniProt P18031+Q96SW2); conditions: hek293t
# Description: PROTAC activity at PTP1B/CRBN in HEK293T cells assessed as maximal protein degradation at 10 uM measured for 48 hrs by Western blot analysis relative to control
# [8] = molecular target: T1, Tyrosine-protein phosphatase non-receptor type 2; remark: listed apart in the source
# Description: Inhibition of full length human recombinant PTPN2 by mobility shift assay
# [9] = molecular target: T1, Tyrosine-protein phosphatase non-receptor type 2; remark: listed apart in the source
# Description: Inhibition of His-tagged PTPN2 (unknown origin) by mobility shift assay
# B16-F10 [10] = assay: cells; conditions: Mus musculus
# Description: Antiproliferative activity against mouse B16-F10 cells assessed as reduction in cell growth
# [11] = molecular target: T1, Tyrosine-protein phosphatase non-receptor type 2; remark: listed apart in the source
# Description: Inhibition of PTPN2 (unknown origin)
# [12] = molecular target: T1, Tyrosine-protein phosphatase non-receptor type 2; remark: listed apart in the source
# Description: Inhibition of full length human recombinant PTPN2 using DiFMUP as substrate
# B16-F10 [13] = assay: cells; conditions: Mus musculus; remark: listed apart in the source
# Description: Antiproliferative activity against mouse B16-F10 cells
# [14] = molecular target: T3, Protein cereblon/Tyrosine-protein phosphatase non-receptor type 2; conditions: hek293t; remark: listed apart in the source
# Description: PROTAC activity at PTPN2/CRBN in HEK293T cells assessed as induction of PTPN2 degradation incubated for 24 hrs by Nan-glo HiBiT lytic assay
# B16-F10 [15] = assay: animal or person; conditions: Mus musculus, B16-F10, 360 h, read-out: TGI
# [16] = molecular target: T1, Tyrosine-protein phosphatase non-receptor type 2; remark: listed apart in the source
# Description: Inhibition of PTPN2 (unknown origin) using DiFMUP as substrate incubated for 30 mins by fluorescence based analysis
# [17] = molecular target: T1, Tyrosine-protein phosphatase non-receptor type 2; remark: listed apart in the source
# Description: Inhibition of PTPN2 (unknown origin) using DiFMUP as substrate pre-incubated for 15 mins and measured for 30 mins by fluorescence based analysis
# [18] = molecular target: T1, Tyrosine-protein phosphatase non-receptor type 2; remark: listed apart in the source
# Description: Inhibition of PTPN2 (unknown origin) using pNPP as substrate measured for 60 mins by fluorescence based analysis
# [19] = molecular target: T2, Tyrosine-protein phosphatase non-receptor type 1; remark: listed apart in the source
# Description: Binding affinity to PTP1B (unknown origin) using pNPP as substrate incubated for 60 mins by fluorescence based analysis
# [20] = molecular target: T1, Tyrosine-protein phosphatase non-receptor type 2; remark: listed apart in the source
# Description: Inhibition of full length human recombinant PTPN2 (1 to 387 residues)
# B16-F10 [21] = assay: cells; conditions: Mus musculus; remark: listed apart in the source
# Description: Antiproliferative activity against mouse B16-F10 cells assessed as inhibition of cell growth
# [22] = molecular target: T2, Tyrosine-protein phosphatase non-receptor type 1; remark: listed apart in the source
# Description: Inhibition of C-terminal recombinant PTP1B (1 to 405 residues) (unknown origin) using pNPP as substrate incubated for 30 mins by fluorescence based analysis
# [23] = molecular target: T1, Tyrosine-protein phosphatase non-receptor type 2; remark: listed apart in the source
# Description: Inhibition of human PTPN2 using DiFMUP as substrate by fluorescence based analysis
# [24] = molecular target: T2, Tyrosine-protein phosphatase non-receptor type 1; remark: listed apart in the source
# Description: Inhibition of PTP1B (unknown origin) using para-nitrophenol phosphate substrate incubated for 30 mins by fluorescence based analysis
# [25] = molecular target: T2, Tyrosine-protein phosphatase non-receptor type 1; remark: listed apart in the source
# Description: Inhibition of full length His-tagged PTP1B (unknown origin) by mobility shift assay
# [26] = molecular target: T1, Tyrosine-protein phosphatase non-receptor type 2; remark: listed apart in the source
# Description: Inhibition of PTPN2 (unknown origin) by mobility shift assay
# [27] = molecular target: T2, Tyrosine-protein phosphatase non-receptor type 1; remark: listed apart in the source
# Description: Inhibition of PTP1B (unknown origin) by mobility shift assay
# [28] = molecular target: T1, Tyrosine-protein phosphatase non-receptor type 2; remark: listed apart in the source
# Description: Binding affinity to PTPN2 (unknown origin) assessed as dissociation constant by SPR assay
# cells = conditions: Homo sapiens, B16
# Description: Inhibition of PTPN2/PTPN1 (unknown origin) in mouse B16 cells assessed as inhibition of IFNgamma-mediated STAT1 phosphorylation
# T3 sequence (Q96SW2 whole entry, one chain of several): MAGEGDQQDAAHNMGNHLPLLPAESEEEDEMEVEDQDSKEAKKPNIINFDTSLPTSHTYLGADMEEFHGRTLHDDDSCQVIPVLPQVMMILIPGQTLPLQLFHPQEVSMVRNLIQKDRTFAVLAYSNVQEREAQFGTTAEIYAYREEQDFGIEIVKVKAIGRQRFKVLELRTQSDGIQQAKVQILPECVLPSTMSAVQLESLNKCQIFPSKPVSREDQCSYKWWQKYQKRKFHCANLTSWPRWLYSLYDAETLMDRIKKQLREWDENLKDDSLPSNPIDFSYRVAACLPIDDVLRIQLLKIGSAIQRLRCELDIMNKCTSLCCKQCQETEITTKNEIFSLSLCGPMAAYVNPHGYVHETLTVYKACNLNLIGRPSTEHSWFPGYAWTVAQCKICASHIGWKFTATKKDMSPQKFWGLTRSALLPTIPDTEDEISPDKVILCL
# Protein cereblon/Tyrosine-protein phosphatase non-receptor type 1, sequence (Q96SW2 whole entry, one chain of several): as above
smiles,measurement,setting,value
O=C(O)COc1c(C(=O)O)sc(-c2cccc(N(C(=O)c3ccccc3)C3CCCCC3)c2)c1Br,Ki,[1],32 nM
same,Ki,[2],16 nM
O=C1/C(=N\Nc2ccc(S(=O)(=O)O)cc2)C(c2ccc([N+](=O)[O-])cc2)=NN1c1ccccc1,IC50,[3],3790 nM
CC(C)(C)C(=O)Nc1ccc2c(c1)C(=O)C(=O)c1ccccc1-2,IC50,[4],950 nM
Cc1c(O[C@@H]2O[C@H](CO[C@@H]3OC[C@@H](O)[C@H](O)[C@H]3O)[C@@H](O)[C@H](O)[C@H]2O)cc2c(c1O)C(=O)c1ccc(O)c(O)c1C2=O,IC50,[5],78000 nM
Cc1ncsc1-c1ccc([C@H](C)NC(=O)[C@@H]2C[C@@H](O)CN2C(=O)[C@@H](NC(=O)CCCCCCNC(=O)Cn2cc(-c3ccc4cc(O)c(N5CC(=O)NS5(=O)=O)c(F)c4c3)cn2)C(C)(C)C)cc1,DC50,[6],94 nM
same,DC50,[7],142 nM
Cc1ncsc1-c1ccc([C@H](C)NC(=O)[C@@H]2C[C@@H](O)CN2C(=O)[C@@H](NC(=O)CCCCCCCCCCNC(=O)Cn2cc(-c3ccc4cc(O)c(N5CC(=O)NS5(=O)=O)c(F)c4c3)cn2)C(C)(C)C)cc1,DC50,[6],571 nM
same,DC50,[7],2000 nM
Cc1ncsc1-c1ccc([C@H](C)NC(=O)[C@@H]2C[C@@H](O)CN2C(=O)[C@@H](NC(=O)CCCCCNC(=O)Cn2cc(-c3ccc4cc(O)c(N5CC(=O)NS5(=O)=O)c(F)c4c3)cn2)C(C)(C)C)cc1,DC50,[6],217 nM
same,DC50,[7],13100 nM
Cc1ncsc1-c1ccc([C@H](C)NC(=O)[C@@H]2C[C@@H](O)CN2C(=O)[C@@H](NC(=O)CCCCCCCNC(=O)Cn2cc(-c3ccc4cc(O)c(N5CC(=O)NS5(=O)=O)c(F)c4c3)cn2)C(C)(C)C)cc1,DC50,[6],77 nM
same,DC50,[7],758 nM
O=C1CN(c2c(O)cc3c(c2F)C[C@H](NCCCC(F)F)CS3)S(=O)(=O)N1,IC50,[8],2.6 nM
CC(C)(O)CCOc1ccc2cc(O)c(N3CC(=O)NS3(=O)=O)c(F)c2c1,IC50,[9],0.6 nM
same,IC50,B16-F10 [10],5800 nM
O=C1CN(c2c(O)cc3ccccc3c2F)S(=O)(=O)N1,IC50,[5],8.39 nM
same,IC50,[11],11.4 nM
Cc1cnnc(NCc2cc(O)c(N3CC(=O)NS3(=O)=O)c(F)c2)c1,IC50,[12],4 nM
same,IC50,B16-F10 [13],410 nM
[2H]ON1C(=O)c2cccc3c([N+](=O)[O-])ccc(c23)C1=O,IC50,[5],113000 nM
same,IC50,[3],198000 nM
O=c1c2ccccc2nnn1O,IC50,[5],472000 nM
same,IC50,[3],369000 nM
CC1(C)C[C@@H](Nc2cccc(-c3sc(C(=O)O)c(OCC(=O)O)c3Cl)c2)CCN1S(=O)(=O)Cc1cccc(NC(=O)N2CCC(c3ccc4c5c(cccc35)C(=O)N4[C@H]3CCC(=O)NC3=O)CC2)c1,DC50,[14],44 nM
same,inhibition in vivo at 10 mg/kg,B16-F10 [15],98%
O=P(O)(O)C(F)(F)c1cc2sc(CO)cc2cc1Br,IC50,[16],1500 nM
CC(C)CCN[C@@H]1COc2cc(O)c(N3CC(=O)NS3(=O)=O)c(F)c2C1,IC50,[8],15.9 nM
O=C1CN(c2c(O)cc3c(c2F)C[C@H](NCCCC(F)F)CO3)S(=O)(=O)N1,IC50,[8],8.85 nM
CCN(CN=O)c1ccc(O)c(O)c1,IC50,[3],6500 nM
O=C1CN(c2c(O)cc3c(c2F)CC(CNCCC(F)F)N3)S(=O)(=O)N1 (stereo not given),IC50,[8],15.2 nM
O=C1CN(c2c(O)cc3c(c2F)C[C@H](NCCCC(F)F)CC3)S(=O)(=O)N1,IC50,[11],< 1 nM
same,IC50,[8],< 0.1 nM
same,IC50,B16-F10 [13],< 50 nM
CCc1ccc(C(=O)NCCCC[C@H](NC(=O)[C@H](Cc2ccc(C(F)(F)P(=O)(O)O)cc2)NC(=O)[C@@H](CC(=O)COC2CC(C)CCC2C(C)C)Cc2ccccc2)C(N)=O)cc1 (stereo not given in full),Ki,[1],4.3 nM
same,IC50,[17],9.2 nM
same,Ki,[2],34 nM
same,IC50,[18],9.2 nM
same,Ki,[19],34 nM
Cc1cccc(NCc2cc(F)c(N3CC(=O)NS3(=O)=O)c3[nH]ncc23)n1,IC50,[12],199 nM
same,IC50,B16-F10 [13],> 15000 nM
CCCC1CCN(C2CCN(Cc3cc(O)c(N4CC(=O)NS4(=O)=O)c(F)c3)C2)C1 (stereo not given),IC50,[20],65 nM
same,IC50,B16-F10 [21],19300 nM
C=C(C)[C@@H]1CC[C@@H](C)[C@@H]2CCC(C)=C[C@@H]21,IC50,[5],27000 nM
same,IC50,[22],7700 nM
C=C(C)C#COc1cc(C(N)=O)cc2c(Br)c(C(F)(F)P(=O)(O)O)sc12,IC50,[23],13.7 nM
same,IC50,[24],132 nM
CC(C)C[C@@H]1NC(=O)[C@H](Cc2ccc(OC(F)(C(=O)O)C(=O)O)cc2)NC(=O)[C@H](CCC(=O)O)NC(=O)[C@H](CC(=O)O)NC(=O)[C@H](C)NC(=O)[C@H](CC(=O)O)NC(=O)SC[C@H](C(N)=O)NC1=O,Ki,[2],170 nM
CC(C)CCNc1ccc2cc(O)c(N3CC(=O)NS3(=O)=O)c(F)c2c1,IC50,[9],1 nM
same,IC50,[25],< 1 nM
NC(=O)c1cc2cc(Br)c(C(F)(F)P(=O)(O)O)cc2s1,IC50,[16],280 nM
CC(C)CCN[C@H]1CCc2cc(O)c(N3CC(=O)NS3(=O)=O)c(F)c2C1,IC50,[26],10 nM
same,IC50,[27],10 nM
same,IC50,B16-F10 [13],1000 nM
Cn1c(=O)n(C2CCC(=O)NC2=O)c2ccc(C3CCN(C(=O)Nc4cccc(CS(=O)(=O)N5CC[C@H](Nc6cccc(-c7sc(C(=O)O)c(OCC(=O)O)c7Cl)c6)CC5(C)C)c4)CC3)cc21 (stereo not given in full),Kd,[28],52 nM
same,DC50,[14],44 nM
CC(C)CC1CCN(C2CCN(Cc3cc(O)c(N4CC(=O)NS4(=O)=O)c(F)c3)C2)C1 (stereo not given),IC50,[20],66 nM
same,IC50,B16-F10 [21],8440 nM
O=C1CN(c2c(O)cc(CNc3ncc[nH]3)cc2F)S(=O)(=O)N1,IC50,[12],10 nM
same,IC50,B16-F10 [13],160 nM
Cn1ccnc1NCc1cc(O)c(N2CC(=O)NS2(=O)=O)c(F)c1,IC50,[12],6 nM
same,IC50,B16-F10 [13],180 nM
CC(C)CCN[C@@H]1CSc2cc(O)c(N3CC(=O)NS3(=O)=O)c(F)c2C1,IC50,[8],1.34 nM
CC(C)CCOc1ccc2cc(O)c(N3CC(=O)NS3(=O)=O)c(F)c2c1,IC50,[9],0.58 nM
same,IC50,[25],0.63 nM
CC(C)CCN[C@@H]1CCc2cc(O)c(N3CC(=O)NS3(=O)=O)c(F)c2C1 [OSUNPROTAFIB],IC50,[26],2.8 nM
same,IC50,B16-F10 [13],64 nM
same,EC50,cells,180 nM
COc1ccc2cc(O)c(N3CC(=O)NS3(=O)=O)c(F)c2c1 [TEGEPROTAFIB],IC50,[9],1 nM
same,IC50,[25],1 nM
